Assay results as given in patent publication US20230312646A1, “ANTIBACTERIAL PEPTIDES” (priority 2020, published 2023).
Like-named read-outs stand apart in the source and are kept apart here. Numbered stars: 1 amine (or outer) side, 2 acyl side, 3 side chain; on linkers, the order of the positions; unused ones are H or OH. Square brackets hold non-standard residues; d marks the D form. Peptide text beside a SMILES is read from it. * marks the point of attachment. Phe(3,4-F2) = N[C@@H](Cc1ccc(F)c(F)c1)C(=O)O; Cinnamoyl(4-F) = O=C(/C=C/c1ccc(F)cc1)*; Caffeoyl = O=C(/C=C/c1ccc(O)c(O)c1)*; X5 = O=C([C@@H]1CC(O)CN1[*:1])[*:2]; X2 = O=C(CN(Cc1ccccn1)[*:1])[*:2]; X7 = C[N+](C)=C(NCC(=O)*)N1CCOCC1; X4 = O=C([O-])[C@H](Cc1ccccc1)N*; Cha = N[C@@H](CC1CCCCC1)C(=O)O; NMeD = CN[C@@H](CC(=O)O)C(=O)O; Sar = CNCC(=O)O

Target: T1, Escherichia coli SC (^EcSC) (Escherichia coli, UniProt P0A988)
T1 construct: His tag (inferred from the pET15b vector and Ni-NTA purification) (N); made in house; host or cells: E. coli
T1 sequence (P0A988 whole entry): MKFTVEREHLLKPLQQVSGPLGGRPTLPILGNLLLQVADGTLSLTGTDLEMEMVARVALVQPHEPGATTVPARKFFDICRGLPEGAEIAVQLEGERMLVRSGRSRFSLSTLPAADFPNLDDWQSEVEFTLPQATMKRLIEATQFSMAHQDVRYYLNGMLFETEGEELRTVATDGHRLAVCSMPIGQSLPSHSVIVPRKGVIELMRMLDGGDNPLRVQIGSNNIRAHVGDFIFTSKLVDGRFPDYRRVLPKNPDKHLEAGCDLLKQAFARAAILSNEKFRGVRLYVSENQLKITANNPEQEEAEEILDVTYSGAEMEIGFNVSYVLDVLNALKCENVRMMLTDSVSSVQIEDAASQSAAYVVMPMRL
Experiment: biochemical
Assay type: binding
Conditions: for Kd: Kd (nM); for Kd / ΔG (kcal/mol): ITC at 298.15 K (25° C.); for ΔG (kcal mol^-1): ITC at 25° C.
Protocol: The procedure has been described previously (Wolff, P.; Oliéric, V.; Briand, J. P.; Chaloin, O.; Dejaegere, A.; Dumas, P.; Ennifar, E.; Guichard, G.; Wagner, J.; Burnouf, D. Y., Structure-Based Design of Short Peptide Ligands Binding onto the E. coli Processivity Ring. J. Med. Chem. 2011, 54 (13), 4627-4637). Briefly, E.coli cells were transformed with plasmids pET15b containing the dnaN gene from E. coli and were grown in LB at 37° C. to OD 0.5, then induced by IPTG (0.1 mM) at 28° C. overnight. dnaN proteins fractions were first enriched on a Ni-NTA column, eluted with a histidine step (300 mM) and further purified on a Source Q column in buffer containing 20 mM Tris HCI pH 7.5, 0.5 mM EDTA and 10% (v/v) glycerol, using a gradient from 0 to 0.5 M NaCl. After a final ultracentrifugation (45 K, 1 h, 20° C.), soluble proteins were concentrated on a Centricon 30 K (Millipore) in the same buffer and stored at 4° C. in 2 M ammonium sulfate. Buffer exchange was performed on Centrikon 10 K at 4° C. before use and protein quality was assessed by DLS.
ITC experiments were performed using an iTC200 or a PEAQ-ITC instrument (Microcal Malvern Panalytical). Peptides (300 or 600 µM) were titrated at 25° C. by sequential injections (usually 2 µl each) into an SC solution (30 or 60 µM). Data were corrected for heat of injection by subtracting the signal of the titration of peptides into proteiN-free buffer solution (Hepes 10 mM pH 7.4, NaCl 0.15 M, EDTA 3 mM). Each titration was performed at least twice. Analyses of experimental data were performed following a classical treatment with the AFFINImeter software (https://www.affinimeter.com; S4S, Santiago de Compostela, Spain). In addition, kinetic information was obtained in some cases with kinITC as implemented in the software AFFINImeter.
All newly synthesized peptides were tested for their interaction with ^EcSC by ITC at 25° C. As a general rule, all thermodynamic profiles reveal an exothermic interaction, and a non-favorable entropic component. The resulting negative Gibb’s free energies characterize a spontaneous interaction. The analysis of raw data by the Affinimeter® software also gave access to kinetics rate constant of the interaction.

| SMILES | Kd [nM] | kon (read-out: kon (M^-1.s^-1)) [M⁻¹ s⁻¹] | kon (read-out: kon (M^-1 s^-1)) [M⁻¹ s⁻¹] | ΔG (kcal mol^-1) | ΔG (kcal/mol) | fold lower Kd / affinity enhancement in comparison to peptide P27 (compared to P27) [fold] | koff, fold higher than for peptide 1 (P1) (compared to P1) [fold] | kon value, fold higher than for peptide 1 (P1) (compared to P1) [fold] |
| --- | --- | --- | --- | --- | --- | --- | --- | --- |
| CC(C)C[C@H](NC(=O)[C@H](CC(=O)O)NC(=O)[C@H](CC1CCCCC1)NC(=O)[C@H](CCC(N)=O)NC(=O)CNCc1ccccn1)C(=O)N[C@@H](Cc1ccccc1)C(=O)O [P8] (H-[X2]Q[Cha]DLF-OH) | 172 | 34000 | – | – | – | – | – | – |
| CC(C)C[C@H](NC(=O)[C@H](CC(=O)O)N(C)C(=O)[C@H](CC1CCCCC1)NC(=O)[C@H](CCC(N)=O)NC(=O)/C=C/c1ccc(F)cc1)C(=O)N[C@@H](Cc1ccc(F)c(F)c1)C(=O)O [P41] ({Cinnamoyl(4-F)}-Q[Cha][NMeD]L[Phe(3,4-F2)]-OH) | 99 | – | 51000 | – | – | – | – | – |
| CC(=O)N[C@@H](CCC(N)=O)C(=O)N[C@@H](CC1CCCCC1)C(=O)N(C)[C@@H](CC(=O)O)C(=O)N[C@@H](CC(C)C)C(=O)N1CCC[C@H]1C(=O)N[C@@H](CC(C)C)C(=O)O [P42] (Ac-Q[Cha][NMeD]LPL-OH) | 263 | – | 100000 | -9.0 (± 0.2) kcal mol^-1 | – | – | – | – |
| CC(=O)N[C@@H](CCC(N)=O)C(=O)N[C@@H](CC1CCCCC1)C(=O)N[C@H](C(=O)N[C@@H](CC(C)C)C(=O)N[C@@H](Cc1ccccc1)C(=O)O)[C@@H](C)O [Asp to Thr substitution] (Ac-Q[Cha]TLF-OH) | 180 | – | – | – | -9.2 (+/- 0.1) kcal/mol | – | – | – |
| CC(=O)N[C@@H](CCC(N)=O)C(=O)N[C@@H](CC1CCCCC1)C(=O)N[C@@H](CC(=O)O)C(=O)N[C@@H](CC(C)C)C(=O)N1CC(O)C[C@H]1C(=O)N[C@@H](CC(C)C)C(=O)O (stereo partly drawn) [P33] (Ac-Q[Cha]DL[X5]L-OH) | 369 | 44000 | – | – | -8.8 (± 0.2) kcal/mol | – | – | – |
| CC(C)C[C@H](NC(=O)[C@H](CC(=O)O)NC(=O)[C@H](CC1CCCCC1)NC(=O)[C@H](CCC(N)=O)NC(=O)CNC(N1CCOCC1)=[N+](C)C)C(=O)N[C@@H](Cc1ccccc1)C(=O)[O-] [P14] (X7-Q[Cha]DL-X4) | 276 | 34000 | – | – | -9.0 (± 0.1) kcal/mol | – | – | – |
| CC(=O)N[C@@H](CCC(N)=O)C(=O)N[C@@H](CC1CCCCC1)C(=O)N(C)[C@@H](CC(=O)O)C(=O)N[C@@H](CC(C)C)C(=O)N[C@@H](Cc1ccc(F)c(F)c1)C(=O)O [P40] (Ac-Q[Cha][NMeD]L[Phe(3,4-F2)]-OH) | 148 | – | 56000 | -9.3 (± 0.02) kcal mol^-1 | – | – | – | – |
| CC(=O)N[C@@H](CCC(N)=O)C(=O)N[C@@H](CC1CCCCC1)C(=O)N[C@@H](CC(=O)O)C(=O)N[C@@H](CC(C)C)C(=O)N1CCC[C@H]1C(=O)N[C@@H](CC(C)C)C(=O)O [P32] (Ac-Q[Cha]DLPL-OH) | 182 | 57000 | – | – | -9.2 (± 0.2) kcal/mol | 4 | – | – |
| CC(C)C[C@H](NC(=O)[C@H](CC(=O)O)NC(=O)[C@H](CC1CCCCC1)NC(=O)[C@H](CCC(N)=O)NC(=O)/C=C/c1ccc(O)c(O)c1)C(=O)N[C@@H](Cc1ccccc1)C(=O)O [P21] (Caffeoyl-Q[Cha]DLF-OH) | 99 | 46000 | – | – | – | – | – | – |
| CC(=O)N[C@@H](CCC(N)=O)C(=O)N[C@@H](CC1CCCCC1)C(=O)N[C@@H](CC(=O)O)C(=O)N[C@@H](CC(C)C)C(=O)N(C)CC(=O)N[C@@H](CC(C)C)C(=O)O [P30] (Ac-Q[Cha]DL[Sar]L-OH) | 583 | 40000 | – | – | -8.5 (± 0.2) kcal/mol | – | – | – |
| CC(=O)N[C@@H](CCC(N)=O)C(=O)N[C@@H](CC1CCCCC1)C(=O)N(C)[C@@H](CC(=O)O)C(=O)N[C@@H](CC(C)C)C(=O)N[C@@H](Cc1ccccc1)C(=O)O [P4] (Ac-Q[Cha][NMeD]LF-OH) | 114 | 210000 | – | – | -9.5 (± 0.1) kcal/mol | – | 2.5 | 5 |
| CC(=O)N[C@@H](CCC(N)=O)C(=O)N[C@@H](CC1CCCCC1)C(=O)N[C@@H](CC(=O)O)C(=O)N[C@@H](CC(C)C)C(=O)NCC(=O)N[C@@H](Cc1ccccc1)C(=O)O [P29] (Ac-Q[Cha]DLGF-OH) | 313 | 32000 | – | – | -8.9 (± 0.1) kcal/mol | – | – | – |
